Results on 1 compound are retold here after patent US20120010075A1 (priority 2009, published 2012).

What is called pest or weed control is how far the test organism was held down. As a reminder, the inhibition is the share of the control response that was lost under treatment. In general, EC50 refers to the midpoint of the concentration-response curve.

Where two headings read alike, the source gives them in different places.

Test [1] concerns Leptosphaeria nodorum (glume blotch of wheat). Description: Cu-hydrazone complexes versus parent hydrazones against glume blotch of wheat (Example 32, Table 8). The class given is in vivo, Leptosphaeria nodorum on wheat (cultivar Yuma). As to conditions: Parastagonospora nodorum, 200 ppm spray, inoculated after 24 h.
Test [2] has as its system Leptosphaeria nodorum (LEPTNO). Nature of the test: Isolated metal-hydrazone complexes versus parent hydrazones, in vitro, Leptosphaeria nodorum (Example 31, Table 7). Format: cell-based. The conditions noted are these: Parastagonospora nodorum; 0.1 μg/mL; copper-minus medium; 72 h.
Test [3] concerns Phytophthora capsici. Nature of the test: In vitro fungitoxicity of hydrazones with and without copper towards Phytophthora capsici (Example 28, Table 3). As to conditions: 0.050 μg/mL, 48 h. Format: cell-based.
The subject of test [4] is Leptosphaeria nodorum (LEPTNO). Nature of the test: In vitro fungitoxicity of hydrazones with and without copper towards Leptosphaeria nodorum (Example 26). The class given is cell-based. The conditions noted are these: compound 0.05 μg/mL, 72 h at 25° C.
Test [5] concerns Phytophthora capsici. Nature of the test: Fungitoxicity of copper-hydrazone mixtures of different ratios towards Phytophthora capsici (Example 36, Table 12). Format: cell-based. The conditions noted are these: Phytophthora capsici. The method, then:
In vitro fungitoxicity assays against Phytophthora capsici were conducted using the copper-minus AS medium described in Example 28. Mixtures containing hydrazone compound 16 at 200 nM and CuCl2.2H2O at 0.2 μM (1:1 molar ratio), 0.8 μM (1:4 ratio), 3.2 μM (1:16 ratio), 12.5 μM (1:62.5 ratio), 50 μM (1:200 ratio) and 200 μM (1:1000 ratio) were prepared in copper-minus AS medium. Two-fold dilution series of these mixtures were then prepared in 100 μL aliquots of copper-minus AS medium in flat-bottomed 96-well microtiter plates. A suspension of P. capsici zoospores in Chelex-treated water at 5×10^4 spores per mL was prepared as in Example 28. Microtiter plates were inoculated with 100 μL of the spore suspension and incubated at 25° C. for 48 h before assessing fungal growth by measuring light scattering in a NepheloStar plate reader.
(§1) Growth inhibition was determined by comparing growth in the presence of copper-hydrazone mixture with growth in control wells lacking the copper-hydrazone mixture. EC50 values were calculated from dose-response curves, and are expressed as the amounts of hydrazone or copper in each test mixture at the rates providing 50% inhibition of growth as compared to a control lacking the copper-hydrazone mixture.

The subject of test [6] is Septoria tritici isolate USA-184. Nature of the test: In vitro fungitoxicity of hydrazones with and without copper towards Septoria tritici (Example 30, Table 5). Format: cell-based. The conditions noted are these: Zymoseptoria tritici, 0.05 μg/mL.
Test [7] deals with Leptosphaeria nodorum (LEPTNO). Nature of the test: Fungitoxicity of copper-hydrazone mixtures of different ratios towards Leptosphaeria nodorum (Example 35, Table 11). The class given is cell-based. As to conditions: Parastagonospora nodorum. On the procedure:
In vitro fungitoxicity assays against LEPTNO were conducted using the copper-minus medium described in Example 26. Mixtures containing hydrazone compound 16 at 200 nM and CuCl2 at 0.2 μM (1:1 molar ratio), 0.8 μM (1:4 ratio), 12.5 μM (1:62.5 ratio) and 200 μM (1:1000 ratio) were prepared in copper-minus medium. Two-fold dilution series of these mixtures were then prepared in 100 μL aliquots of copper-minus medium in flat-bottomed 96-well microtiter plates. A suspension of LEPTNO spores in copper-minus medium at 2×10^5 spores per mL was prepared as in Example 26. Microtiter plates were inoculated with 100 μL of the spore suspension and the plates were incubated at 25° C. for 72 h before assessing fungal growth by measuring light scattering in a NepheloStar plate reader.
as §1

Where [8] appears, read: Hydrazone without CuCl2, read-out: Hydrazone EC50.
Where [9] appears, read: Hydrazone:Cu ratio 1 to 1, read-out: Hydrazone EC50 (amount of hydrazone in mixture at EC50).
Where [10] appears, read: Hydrazone:Cu ratio 1 to 4, read-out: Hydrazone EC50 (amount of hydrazone in mixture at EC50).
[11] abbreviates: Hydrazone:Cu ratio 1 to 62.5, read-out: Hydrazone EC50 (amount of hydrazone in mixture at EC50).
[12] abbreviates: Hydrazone:Cu ratio 1 to 1000, read-out: Hydrazone EC50 (amount of hydrazone in mixture at EC50).

With `O=C(N/N=C/c1cc(Cl)cc(Cl)c1O)c1ccccc1` [Example 16], the pest or weed control at 200 ppm in test [1] turned out to be 41%. Moreover, the inhibition at 0.1 µg/mL in test [2] was 19.9%. In addition, in test [3] (copper-plus AS medium (CuCl2, 50 μM)), the “% Inhn Plus copper Observed” value was found to be 91.9%. Besides, the inhibition of growth at 0.05 µg/mL was found to be 0% in test [3] (Phytophthora capsici, copper-minus AS medium, read-out: % Inhn Minus copper Observed) and 0% in test [4] (Parastagonospora nodorum, 72 h, copper-minus medium, read-out: LEPTNO % Inhn. Minus Copper Observed). Further, in test [4] (copper-plus medium (CuCl2.2H2O)), the “LEPTNO % Inhn. Plus Copper Observed” value came out at 97.1%. Further, the half-maximal effective concentration (EC50) in test [5] (setting [8]) came to 0.143 µM; in test [5] (setting [9]), 0.0711 µM; in test [5] (setting [10]), 0.0471 µM; in test [5] (Hydrazone:Cu ratio 1 to 16, read-out: Hydrazone EC50 (amount of hydrazone in mixture at EC50)), 0.0275 µM; in test [5] (setting [11]), 0.0166 µM; in test [5] (Hydrazone:Cu ratio 1 to 250, read-out: Hydrazone EC50 (amount of hydrazone in mixture at EC50)), 0.0076 µM. Besides, the EC50 in test [5] (setting [12]) was 0.0046 µM; in test [7] (setting [8]), greater than 3.2 µM; in test [7] (setting [9]), 0.0722 µM; in test [7] (setting [10]), 0.043 µM; in test [7] (setting [11]), 0.0284 µM; in test [7] (setting [12]) it was 0.014 µM. The inhibition at 0.05 µg/mL in test [6] (Colby formula, CuCl2, read-out: % Inhibition Plus copper Predicted) is 35.8%; in test [6] (copper-minus medium, 90 h, read-out: % Inhibition Minus copper Observed), 35.8%; in test [6] (copper-plus medium CuCl2, 90 h, read-out: % Inhibition Plus copper Observed), 93.6%.
